The test system of assay [1] is U-2 OS. The experiment in a line: relative cell count vs DMSO (cell painting) (fraction of DMSO control); higher = more cells remaining (less cytotoxic). The note with it: 24 h. The protocol:
(§1)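 Cell painting in U-2 OS cells (384-well, about 1,500 cells per well), compound exposure 24 h, usually six 2-fold concentrations from 20 to 0.625 uM (some compounds higher or lower). Relative cell count is the cell number per well relative to DMSO wells. Activity score is the Mahalanobis distance of the morphological profile from DMSO control wells. Mean of four technical replicate plates.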

Assay [2] has as its system U-2 OS. The experiment in a line: cell painting activity score (Mahalanobis distance from DMSO wells); higher = stronger morphological phenotype. The note with it: 24 h. The procedure:
as §1

Assay [3] concerns U-2 OS. The experiment in a line: AUC of culture confluence over time (live-cell imaging) (AUC (confluence % x time)); higher = more confluent culture (less growth inhibition). The procedure:
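Live-cell Incucyte imaging of U-2 OS cells in F-12K medium. Compounds were tested mostly at 5, 10 and 20 uM, and cells were imaged every 4 h for up to 60 h. Value is the area under the curve of phase-contrast confluence over time.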

Take `C=CCNC1=C2C[C@@H](C)C[C@H](OC)[C@H](O)[C@@H](C)/C=C(\C)[C@H](OC(N)=O)[C@@H](OC)/C=C\C=C(/C)C(=O)NC(=CC1=O)C2=O`: the relative cell count in the assay with U-2 OS [1] (0.625 µM) is 0.814; with U-2 OS [1] (1.25 µM), 0.697; in the assay with U-2 OS [1] (2.5 µM), 0.61; with U-2 OS [1] (5 µM), 0.586; in the assay with U-2 OS [1] (10 µM), 0.589; in the assay on U-2 OS [1] (20 µM) it was 0.549. The “cell painting activity score” value in the assay on U-2 OS [2] (0.625 µM) came out at 16.6; with U-2 OS [2] (1.25 µM) it was 19.1; with U-2 OS [2] (2.5 µM) it was 19.1; with U-2 OS [2] (5 µM) it was 19.1; in the assay on U-2 OS [2] (10 µM) it was 19.2; in the assay with U-2 OS [2] (20 µM) it was 18.3.
`CCN(CCO)CCCOc1ccc2c(Nc3cc(CC(=O)Nc4cccc(F)c4)[nH]n3)ncnc2c1`: the “AUC of culture confluence over time” value amounted to 30.4 in the assay with U-2 OS [3] (5 µM), 32.1 in the assay on U-2 OS [3] (10 µM) and 29.6 with U-2 OS [3] (20 µM). In addition, the relative cell count in the assay with U-2 OS [1] (0.625 µM) is 0.771; in the assay on U-2 OS [1] (1.25 µM), 0.757; in the assay on U-2 OS [1] (2.5 µM), 0.76; in the assay with U-2 OS [1] (5 µM), 0.8; with U-2 OS [1] (10 µM) it was 0.788; in the assay with U-2 OS [1] (20 µM), 0.757. Further, the “cell painting activity score” value in the assay on U-2 OS [2] (0.625 µM) is 14.3; in the assay with U-2 OS [2] (1.25 µM), 14.4; in the assay on U-2 OS [2] (2.5 µM), 14.3; in the assay with U-2 OS [2] (5 µM), 14.3; in the assay with U-2 OS [2] (10 µM), 14.5; with U-2 OS [2] (20 µM), 14.9.
Take `Nc1ccn([C@@H]2O[C@H](CO)[C@@H](O)C2(F)F)c(=O)n1`: the “AUC of culture confluence over time” value in the assay with U-2 OS [3] (5 µM) is 29.2; in the assay with U-2 OS [3] (10 µM), 31.9; with U-2 OS [3] (20 µM), 28.7. Moreover, the relative cell count in the assay on U-2 OS [1] (0.625 µM) came out at 0.601; in the assay on U-2 OS [1] (1.25 µM) it was 0.571; in the assay on U-2 OS [1] (2.5 µM) it was 0.574; with U-2 OS [1] (5 µM), 0.581; in the assay on U-2 OS [1] (10 µM), 0.624; in the assay on U-2 OS [1] (20 µM) it was 0.589. Moreover, the “cell painting activity score” value in the assay on U-2 OS [2] (0.625 µM) worked out at 13.7; in the assay with U-2 OS [2] (1.25 µM), 14; in the assay on U-2 OS [2] (2.5 µM), 14.9; with U-2 OS [2] (5 µM), 15.2; in the assay on U-2 OS [2] (10 µM), 15.4; with U-2 OS [2] (20 µM) it was 14.3.
`Oc1ccc2ccccc2c1SSc1c(O)ccc2ccccc12`: the “AUC of culture confluence over time” value stood at 44.4 with U-2 OS [3] (5 µM), 37.5 with U-2 OS [3] (10 µM) and 18 in the assay on U-2 OS [3] (20 µM). The relative cell count in the assay on U-2 OS [1] (0.625 µM) is 0.996; in the assay with U-2 OS [1] (1.25 µM) it was 0.924; in the assay with U-2 OS [1] (2.5 µM) it was 0.926; in the assay on U-2 OS [1] (5 µM), 0.901; with U-2 OS [1] (10 µM), 0.812; in the assay with U-2 OS [1] (20 µM) it was 0.245. Further, the “cell painting activity score” value came to 5.34 in the assay with U-2 OS [2] (0.625 µM); 4.94 in the assay on U-2 OS [2] (1.25 µM); 7.79 in the assay with U-2 OS [2] (2.5 µM); 8.22 in the assay with U-2 OS [2] (5 µM); 9.14 with U-2 OS [2] (10 µM); 14 in the assay with U-2 OS [2] (20 µM).
Consider `O=C(O[C@@H]1O[C@@H]2COC(=O)c3cc(O)c(O)c(O)c3-c3c(cc(O)c(O)c3O)C(=O)O[C@H]([C@H]1O)[C@@H]2O)c1cc(O)c(O)c(O)c1`, for which the “AUC of culture confluence over time” value in the assay with U-2 OS [3] (5 µM) worked out at 48.7; with U-2 OS [3] (10 µM), 46.2; in the assay with U-2 OS [3] (20 µM) it was 43.4. Further, the relative cell count in the assay with U-2 OS [1] (0.625 µM) amounted to 1.02; in the assay with U-2 OS [1] (1.25 µM), 1.04; in the assay on U-2 OS [1] (2.5 µM), 1.01; in the assay with U-2 OS [1] (5 µM) it was 1; with U-2 OS [1] (10 µM), 0.979; in the assay with U-2 OS [1] (20 µM), 0.978. The “cell painting activity score” value was found to be 4.19 with U-2 OS [2] (0.625 µM); 3.86 with U-2 OS [2] (1.25 µM); 4.06 in the assay on U-2 OS [2] (2.5 µM); 3.55 with U-2 OS [2] (5 µM); 4.28 with U-2 OS [2] (10 µM); 4.5 in the assay with U-2 OS [2] (20 µM).
On to `C[C@@H]1O[C@@H](O[C@H]2[C@H](OC(=O)[C@]34CCC(C)(C)C[C@H]3C3=CC[C@@H]5[C@@]6(C)C[C@H](O)[C@H](O[C@@H]7O[C@H](CO)[C@@H](O)[C@H](O)[C@H]7O)[C@@](C)(CO)[C@@H]6CC[C@@]5(C)[C@]3(C)CC4)O[C@H](CO)[C@@H](O)[C@@H]2O)[C@H](O)[C@H](O)[C@H]1O[C@@H]1OC[C@@H](O)[C@H](O)[C@H]1O`, for which the “AUC of culture confluence over time” value in the assay on U-2 OS [3] (5 µM) turned out to be 52.4; with U-2 OS [3] (10 µM) it was 46.4; with U-2 OS [3] (20 µM), 51. The relative cell count in the assay with U-2 OS [1] (0.625 µM) was 0.996; in the assay on U-2 OS [1] (1.25 µM), 0.972; with U-2 OS [1] (2.5 µM), 0.947; with U-2 OS [1] (5 µM), 0.97; with U-2 OS [1] (10 µM) it was 0.984; in the assay with U-2 OS [1] (20 µM) it was 0.999. The “cell painting activity score” value with U-2 OS [2] (0.625 µM) turned out to be 4.19; in the assay with U-2 OS [2] (1.25 µM), 4.7; with U-2 OS [2] (2.5 µM), 5.42; with U-2 OS [2] (5 µM), 5.5; in the assay with U-2 OS [2] (10 µM) it was 6.76; in the assay on U-2 OS [2] (20 µM) it was 3.23.
As for `CC[C@H](C)[C@@H]1NC(=O)CNC(=O)[C@@H]2Cc3c([nH]c4cc(O)ccc34)S(=O)C[C@H](NC(=O)CNC1=O)C(=O)N[C@@H](CC(=O)O)C(=O)N1C[C@H](O)C[C@H]1C(=O)N[C@@H]([C@@H](C)[C@@H](O)CO)C(=O)N2` (some centres undefined), the figures for the “AUC of culture confluence over time” value with U-2 OS [3] (5 µM), in the assay on U-2 OS [3] (10 µM) and in the assay on U-2 OS [3] (20 µM) were 26.4, 24.6 and 16.3, respectively. Moreover, the relative cell count in the assay with U-2 OS [1] (0.625 µM) came out at 0.979; with U-2 OS [1] (1.25 µM), 0.941; in the assay with U-2 OS [1] (2.5 µM) it was 0.975; in the assay on U-2 OS [1] (5 µM), 0.992; in the assay with U-2 OS [1] (10 µM), 0.958; with U-2 OS [1] (20 µM) it was 0.862. Moreover, the “cell painting activity score” value in the assay with U-2 OS [2] (0.625 µM) came to 5.47; in the assay on U-2 OS [2] (1.25 µM), 4.77; with U-2 OS [2] (2.5 µM) it was 6.25; in the assay on U-2 OS [2] (5 µM), 4.42; in the assay with U-2 OS [2] (10 µM), 11.2; in the assay with U-2 OS [2] (20 µM), 29.1.
For `O=C([O-])C(=O)[O-].[NH-][C@@H]1CCCC[C@H]1[NH-].[Pt+4]`, the relative cell count in the assay with U-2 OS [1] (0.625 µM) worked out at 0.86; in the assay with U-2 OS [1] (1.25 µM), 0.786; in the assay on U-2 OS [1] (2.5 µM), 0.66; in the assay on U-2 OS [1] (5 µM), 0.501; with U-2 OS [1] (10 µM), 0.35; in the assay on U-2 OS [1] (20 µM) it was 0.203. The “cell painting activity score” value worked out at 4.3 with U-2 OS [2] (0.625 µM); 8.95 with U-2 OS [2] (1.25 µM); 20.4 in the assay on U-2 OS [2] (2.5 µM); 20 in the assay on U-2 OS [2] (5 µM); 19.8 with U-2 OS [2] (10 µM); 22.1 in the assay on U-2 OS [2] (20 µM).
With `CN(N=O)C(=O)N[C@@H]1[C@@H](O)[C@H](O)[C@@H](CO)O[C@@H]1O`, the “AUC of culture confluence over time” value with U-2 OS [3] (5 µM) was determined as 48.1; with U-2 OS [3] (10 µM), 46.7; with U-2 OS [3] (20 µM), 48.1. Moreover, the relative cell count was 1.04 in the assay with U-2 OS [1] (0.625 µM); 0.929 in the assay on U-2 OS [1] (1.25 µM); 0.893 with U-2 OS [1] (2.5 µM); 0.893 with U-2 OS [1] (5 µM); 0.88 in the assay on U-2 OS [1] (10 µM); 0.851 in the assay on U-2 OS [1] (20 µM). For the same compound, the “cell painting activity score” value worked out at 12.4 with U-2 OS [2] (0.625 µM); 14.8 with U-2 OS [2] (1.25 µM); 14.4 with U-2 OS [2] (2.5 µM); 13.9 in the assay on U-2 OS [2] (5 µM); 10.4 in the assay on U-2 OS [2] (10 µM); 10.8 in the assay on U-2 OS [2] (20 µM).
Regarding `O=C(CBr)N1CC([N+](=O)[O-])([N+](=O)[O-])C1`, the “AUC of culture confluence over time” value in the assay on U-2 OS [3] (5 µM) turned out to be 50; in the assay on U-2 OS [3] (10 µM), 49.9; with U-2 OS [3] (20 µM), 42.4. The relative cell count in the assay with U-2 OS [1] (0.625 µM) was found to be 0.992; in the assay on U-2 OS [1] (1.25 µM) it was 1.02; with U-2 OS [1] (2.5 µM), 0.919; in the assay with U-2 OS [1] (5 µM) it was 0.891; in the assay with U-2 OS [1] (10 µM), 0.972; with U-2 OS [1] (20 µM) it was 0.873. Also, the “cell painting activity score” value amounted to 6.87 in the assay on U-2 OS [2] (0.625 µM); 7.38 in the assay with U-2 OS [2] (1.25 µM); 11.3 in the assay with U-2 OS [2] (2.5 µM); 10.6 with U-2 OS [2] (5 µM); 11.8 in the assay on U-2 OS [2] (10 µM); 11.3 with U-2 OS [2] (20 µM).
